Tests used:
HeLaPKRkd cells [1] = experiment: SRB cell viability assay; assay type: cell-based, human; conditions: 72 hours after treatment
Method: (§1) Anticancer effects of PKR-targeting compounds depend on PKR expression status: To identify compounds that can target lysosomes in PKR-positive cells or MVBs/exosomes in PKR-negative cells, the 10,000-compound ChemBridge library was screened for compounds with different effects on the growth of HeLa and HeLaPKRkd cells. […] SRB assays were next used to determine cell viability after treatment with Pac 1 or Pac 2.
(§2) Cell viability assays: For SRB assays, cells (2-8×10^3/well in 100 μL of culture medium) were seeded in 96-well flat-bottomed plates and treated the next day with compounds at the indicated concentrations. After the indicated treatments, cells were fixed with trichloroacetic acid. The protein was stained with SRB, and the optical density at 570 nm was determined. Relative cell viability was calculated by setting the viability rate of the control cells (exposed only to dimethyl sulfoxide) at 100% and comparing the viability of the treated cells with that of the controls. The experiments were performed at least three times for each cell line. The viability of leukemia cell lines was determined by using a 3-(4,5-dimethylthiazol-2-yl)-2,5-diphenyltetrazolium bromide assay.
(§3) Identification of PKR-associated compounds and cytotoxicity studies: The library of 10,000 compounds was screened for those with different effects on the growth of HeLa and HeLaPKRkd cells. […] Treated cells were observed under a microscope to detect morphologic changes, and their viability was determined using SRB assays 2 and 3 days after treatment. […]
(§4) For the SRB assay, cells (2-8×10^3/well in 100 μL of culture medium) were seeded in 96-well flat-bottomed plates and treated the next day with compounds at the indicated concentrations. […] The cells were stained using SRB, and the optical density at 570 nm was determined. Relative cell viability was determined by setting the viability of the control cells (exposed only to dimethyl sulfoxide) at 100% and comparing their viability with that of the treated cells. […]

HeLa cells = experiment: SRB cell viability assay; assay type: cell-based, human; conditions: 72 hours after treatment
Method: as §1, §2, §3, §4

[2] = test system: normal cells (HBE, human mammary epithelial cells); experiment: SRB cell viability assay, normal cells; assay type: cell-based; conditions: 72 hours after treatment, HBE and human mammary epithelial cells
Method: The effects of Pac 1 and Pac 2 were next examined on PKR protein expression in HeLa cells using Western blot analysis. […] No reduction in normal cell viability was observed after treatment with Pac 1 or Pac 2 (FIGS. 5F and G). […] Because most of the cancer cell lines that were tested were more sensitive to Pac 1 than to Pac 2, Pac 1 was further investigated.
as §2
For the SRB assay, cells (2-8×10^3/well in 100 μL of culture medium) were seeded in 96-well flat-bottomed plates and treated the next day with compounds at the indicated concentrations. […] The cells were stained using SRB, and the optical density at 570 nm was determined. […]

AP-1/2/3 complexes = experiment: Western blot of AP-1, AP-2 and AP-3 complex-associated proteins; assay type: cell-based, human; conditions: H1299 and MDA-MB-231 cells, 72 hours after treatment
Description: Western blotting was next used to evaluate proteins known to be involved in AP-1/2/3 complexes in lung (H1299) and breast (MDA-MB-231) cancer cells after treatment with Pac 1 or Pac 2. […] AP-1 and AP-2 mediate protein sorting in the endosome, trans-Golgi network, and plasma membrane. […] The impact of Pac 1 was then investigated on lysosome function by staining cells with the acidophilic dye LysoTracker Red.

Toxicity in mice = conditions: 50 mg/kg intravenously daily for 7 days
HeLaPKRkd cells [3] = experiment: Microscopic analysis of morphologic changes; assay type: cell-based, human
Description: as §1
Identification of PKR-associated compounds and cytotoxicity studies: The library of 10,000 compounds was screened for those with different effects on the growth of HeLa and HeLaPKRkd cells. For this screening, both HeLa and HeLaPKRkd cells were seeded in 96-well plates in parallel and treated with each compound at a final concentration of 5 μg/mL. Cells treated with dimethyl sulfoxide (final concentration, 1%) were used as controls. Treated cells were observed under a microscope to detect morphologic changes, and their viability was determined using SRB assays 2 and 3 days after treatment. The compounds initially observed to have different effects on HeLa and HeLaPKRkd cells were subjected to two confirmatory screenings.

[4] = test system: lysosomes and MVBs/exosomes; experiment: Transmission electron microscopy (TEM) of treated cells; assay type: cell-based, human
prion degradation = assay type: cell-based, human; conditions: HeLa cells, Ad-Prion 48 hours, 1 mM

SMILES | viability of HeLaPKRkd cells (HeLaPKRkd cells [1]) | viability of HeLa cells (HeLa cells) | normal cell viability [2] | expression of proteins associated with AP-1 (Rab7α, HSC70, AP-1γ) or AP-2 (AP-2α) (AP-1/2/3 complexes) | blood chemistry: aspartate aminotransferase, SGOT, SGPT, alkaline phosphatase, creatine kinase, lactate dehydrogenase levels (Toxicity in mice) | histopathologic examination of major organs (Toxicity in mice; heart, lungs, liver, kidneys, pancreas, spleen) | growth of HeLaPKRkd cells by microscopy (HeLaPKRkd cells [3]) | lysosomal exocytosis by TEM ([4]; HeLa cells) | lysosomes and MVBs/exosomes by TEM ([4]; HeLaPKRkd cells) | prion degradation (prion degradation)
Fc1ccc(Nc2nc(N/N=C/c3ccc4c(c3)OCO4)nc(N3CCOCC3)n2)cc1 [Pac 2, 1,3-benzodioxole-5-carbaldehyde [4-[(4-fluorophenyl)amino]-6-(4-morpholinyl)-1,3,5-triazin-2-yl]hydrazine] | suppressed more effectively by Pac 2 | not sensitive | No reduction | No reduction of expression | normal | no significant changes in any major organs | suppressed the growth of HeLaPKRkd cells more effectively than did Pac 1 | induced lysosomal exocytosis | destroyed MVBs/exosomes | 
Cn1cnc(N)c2ncnc1-2 [Pac 3MA, 3-methyladenine] |  |  |  |  |  |  |  |  |  | prevented prion degradation

From patent US12465610B2, “Compounds and methods for the treatment of PKR-associated diseases” (Board of Regents, The University of Texas System, priority 2019, dated 2025)
